Source: US12692238B2, “Substituted pyridazinone herbicides” (FMC CORPORATION, priority 2020, dated 2026)

Tests used:
Type in all cases: in vivo
[1] = system: blackgrass (Alopecurus myosuroides); test: Test A preemergence, blackgrass; settings: 0 to 100 scale, 10 days
Description: (§1) Seeds of plant species selected from barnyardgrass (Echinochloa crus-galli), blackgrass (Alopecurus myosuroides), corn (Zea mays), foxtail, giant (giant foxtail, Setaria faberi), foxtail, green (green foxtail, Setaria viridis), goosegrass (Eleusine indica), kochia (Bassia scoparia), oat, wild (wild oat, Avena fatua), palmer amaranth (pigweed, palmer, Amaranthus palmeri), redroot pigweed (Amaranthus retroflexus), ragweed (common ragweed, Ambrosia artemisiifolia), ryegrass, Italian (Italian ryegrass, Lolium multiflorum), and soybean (Glycine max) were planted into a blend of loam soil and sand and treated preemergence with a directed soil spray using test chemicals formulated in a non-phytotoxic solvent mixture which included a surfactant.
(§2) At the same time, plants selected from these crop and weed species and also wheat (Triticum aestivum), galium (catchweed bedstraw, Galium aparine) and horseweed (Erigeron canadensis) were planted in pots containing the same blend of loam soil and sand and treated with postemergence applications of test chemicals formulated in the same manner. Plants ranged in height from 2 to 10 cm and were in the one- to two-leaf stage for the postemergence treatment. Treated plants and untreated controls were maintained in a greenhouse for 10 days, after which time all treated plants were compared to untreated controls and visually evaluated for injury. Plant response ratings, summarized in Table A, are based on a 0 to 100 scale where 0 is no effect and 100 is complete control. A dash (-) response means no test result.

[2] = system: corn (Zea mays); test: Test A preemergence, corn; settings: 0 to 100 scale, 10 days
Description: as §1, §2

[3] = system: foxtail, giant (giant foxtail, Setaria faberi); test: Test A preemergence, foxtail, giant; settings: 0 to 100 scale, 10 days
Method in brief: (§3)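 Visual injury ratings on a 0 to 100 scale (0 no effect, 100 complete control) were made 10 days after treatment, relative to untreated controls. Test chemicals in a surfactant-containing non-phytotoxic solvent were applied to soil at planting or to one- to two-leaf plants 2 to 10 cm tall.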

[4] = system: goosegrass (Eleusine indica); test: Test A preemergence, goosegrass; settings: 0 to 100 scale, 10 days
Description: as §1, §2

[5] = system: kochia (Bassia scoparia); test: Test A preemergence, kochia; settings: 0 to 100 scale, 10 days
Method in brief: as §3

[6] = system: oat, wild (wild oat, Avena fatua); test: Test A preemergence, oat, wild; settings: 0 to 100 scale, 10 days
Description: as §1, §2

[7] = system: palmer amaranth (pigweed, palmer, Amaranthus palmeri); test: Test A preemergence, palmer amaranth; settings: 0 to 100 scale, 10 days
Description: as §1, §2

[8] = system: ragweed (common ragweed, Ambrosia artemisiifolia); test: Test A preemergence, ragweed; settings: 0 to 100 scale, 10 days
Method in brief: as §3

[9] = system: ryegrass, Italian (Italian ryegrass, Lolium multiflorum); test: Test A preemergence, ryegrass, Italian; settings: 0 to 100 scale, 10 days
Method in brief: as §3

[10] = system: soybean (Glycine max); test: Test A preemergence, soybean; settings: 0 to 100 scale, 10 days
Description: as §1, §2

[11] = system: blackgrass (Alopecurus myosuroides); test: Test A postemergence, blackgrass; settings: 10 days
Method in brief: as §3

[12] = system: corn (Zea mays); test: Test A postemergence, corn; settings: 10 days
Method in brief: as §3

[13] = system: foxtail, giant (giant foxtail, Setaria faberi); test: Test A postemergence, foxtail, giant; settings: 10 days
Method in brief: as §3

[14] = system: goosegrass (Eleusine indica); test: Test A postemergence, goosegrass; settings: 10 days
Description: as §1, §2

[15] = system: kochia (Bassia scoparia); test: Test A postemergence, kochia; settings: 10 days
Method in brief: as §3

[16] = system: oat, wild (wild oat, Avena fatua); test: Test A postemergence, oat, wild; settings: 10 days
Description: as §1, §2

[17] = system: palmer amaranth (pigweed, palmer, Amaranthus palmeri); test: Test A postemergence, palmer amaranth; settings: 10 days
Description: as §1, §2

[18] = system: ragweed (common ragweed, Ambrosia artemisiifolia); test: Test A postemergence, ragweed; settings: 10 days
Method in brief: as §3

[19] = system: ryegrass, Italian (Italian ryegrass, Lolium multiflorum); test: Test A postemergence, ryegrass, Italian; settings: 10 days
Method in brief: as §3

[20] = system: soybean (Glycine max); test: Test A postemergence, soybean; settings: 10 days
Description: as §1, §2

[21] = system: wheat (Triticum aestivum); test: Test A postemergence, wheat; settings: 10 days
Method in brief: as §3

[22] = system: galium (catchweed bedstraw, Galium aparine); test: Test A postemergence, galium; settings: 10 days
Method in brief: as §3

[23] = system: horseweed (Erigeron canadensis); test: Test A postemergence, horseweed; settings: 10 days
Description: as §1, §2

[24] = system: barnyardgrass (Echinochloa crus-galli); test: Test B flooded paddy test, barnyardgrass; settings: 250 g ai/ha, Flood; visually evaluated after 10 to 14 days
Method in brief: (§4)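 Plants grown to the 2-leaf stage were flooded to 3 cm above the soil, and test compounds were applied directly into the paddy water, which was held at that depth throughout. After 10 to 14 days in a greenhouse, injury was visually rated against controls on a 0–100 scale (0 no effect, 100 complete control).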

[25] = system: ducksalad (Heteranthera limosa); test: Test B flooded paddy test, ducksalad; settings: 250 g ai/ha, Flood; visually evaluated after 10 to 14 days
Method in brief: as §4

[26] = system: rice (Oryza sativa); test: Test B flooded paddy test, rice; settings: 250 g ai/ha, Flood; visually evaluated after 10 to 14 days
Method in brief: as §4

[27] = system: sedge, umbrella (small-flower umbrella sedge, Cyperus difformis); test: Test B flooded paddy test, sedge, umbrella; settings: 250 g ai/ha, Flood; visually evaluated after 10 to 14 days
Method in brief: as §4

[28] = system: wheat (Triticum aestivum); test: Test A preemergence, wheat; settings: 125 g ai/ha, 0 to 100 scale, 10 days
[29] = 31 g ai/ha, postemergence, 0 to 100 scale (0 no effect, 100 complete control)
[30] = Postemergence, 125 g ai/ha, 0 to 100 scale

SMILES: Cn1nc(Cl)c(OCOC(=O)C(C)(C)C)c(-c2c3ccccc3cc3ccccc23)c1=O [Compound 19]
- Plant response rating, Blackgrass ([1]; 31 g ai/ha): 0
- Plant response rating, Blackgrass ([1]; 125 g ai/ha): 10
- Plant response rating, Corn ([2]; 31 g ai/ha): 0
- Plant response rating, Corn ([2]; 125 g ai/ha): 0
- Plant response rating, Foxtail, Giant ([3]; 31 g ai/ha): 10
- Plant response rating, Foxtail, Giant ([3]; 125 g ai/ha): 70
- Plant response rating, Goosegrass ([4]; 31 g ai/ha): 0
- Plant response rating, Goosegrass ([4]; 125 g ai/ha): 30
- Plant response rating, Kochia ([5]; 31 g ai/ha): 0
- Plant response rating, Kochia ([5]; 125 g ai/ha): 80
- Plant response rating, Oat, Wild ([6]; 31 g ai/ha): 0
- Plant response rating, Oat, Wild ([6]; 125 g ai/ha): 0
- Plant response rating, Pigweed, Palmer ([7]; 31 g ai/ha): 90
- Plant response rating, Pigweed, Palmer ([7]; 125 g ai/ha): 100
- Plant response rating, Ragweed ([8]; 31 g ai/ha): 80
- Plant response rating, Ragweed ([8]; 125 g ai/ha): 80
- Plant response rating, Ryegrass, Italian ([9]; 31 g ai/ha): 0
- Plant response rating, Ryegrass, Italian ([9]; 125 g ai/ha): 80
- Plant response rating, Soybean ([10]; 31 g ai/ha): 0
- Plant response rating, Soybean ([10]; 125 g ai/ha): 0
- Plant response rating, Blackgrass [11, 29]: 0
- Plant response rating, Blackgrass [11, 30]: 0
- Plant response rating, Corn [12, 29]: 10
- Plant response rating, Corn [12, 30]: 20
- Plant response rating, Foxtail, Giant [13, 29]: 10
- Plant response rating, Foxtail, Giant [13, 30]: 50
- Plant response rating, Goosegrass [14, 29]: 10
- Plant response rating, Goosegrass [14, 30]: 10
- Plant response rating, Kochia [15, 29]: 40
- Plant response rating, Kochia [15, 30]: 80
- Plant response rating, Oat, Wild [16, 29]: 10
- Plant response rating, Oat, Wild [16, 30]: 10
- Plant response rating, Pigweed, Palmer [17, 29]: 100
- Plant response rating, Pigweed, Palmer [17, 30]: 100
- Plant response rating, Ragweed [18, 29]: 100
- Plant response rating, Ragweed [18, 30]: 100
- Plant response rating, Ryegrass, Italian [19, 29]: 0
- Plant response rating, Ryegrass, Italian [19, 30]: 10
- Plant response rating, Soybean [20, 29]: 0
- Plant response rating, Soybean [20, 30]: 30
- Plant response rating, Wheat [21, 29]: 0
- Plant response rating, Wheat [21, 30]: 0
- Plant response rating, Galium [22, 29]: 100
- Plant response rating, Galium [22, 30]: 100
- Plant response rating, Horseweed [23, 29]: 100
- Plant response rating, Horseweed [23, 30]: 90
- Plant response rating, Barnyardgrass (0 to 100 scale where 0 is no effect and 100 is complete control) [24]: 35
- Plant response rating, Ducksalad (0 to 100 scale where 0 is no effect and 100 is complete control) [25]: 100
- Plant response rating, Rice (0 to 100 scale where 0 is no effect and 100 is complete control) [26]: 0
- Plant response rating, Sedge, Umbrella (0 to 100 scale where 0 is no effect and 100 is complete control) [27]: 85
- Plant response rating, Wheat [28]: 0
